Key:
sunburn = test: Ultraviolet preventive effect, application test on beach in summer (Test Example 2); assay type: in vivo, human
Protocol: An application test was carried out on beach in summer. Equal volumes of samples were individually coated on back halves of subjects. After exposure to direct daylight, the degree of sunburn was assessed according to the following assessment standards. Each group consists of 10 subjects.
Prominently effective: none or almost no sunburn symptom was observed.
Effective: light sunburn symptom was observed.
Ineffective: strong sunburn symptom was observed.
⊚: prominently effective or effective for 80% or more of the subjects.
◯: prominently effective or effective for 50% or more to less than 80% of the subjects.
Δ: prominently effective or effective for 30% or more to less than 50% of the subjects.
x: prominently effective or effective for less than 30% of the subjects.
The aqueous phase and the alcohol phase were separately prepared and then mixed together.
Propylene glycol was added to and dissolved in ion exchange water. The resulting solution was retained at 70° C. under heating (aqueous phase). Other ingredients were mixed […]. The resulting mixture was melted under heating and retained at 70° C. (oil phase). The oil phase was added to the aqueous phase, for preliminary emulsification with a homomixer to homogeneity. Under thorough mixing, subsequently, the mixture was cooled to 30° C.

skin = test: Test of skin irritation: 24-hour occlusion patch test (Test Example 3 ii); assay type: in vivo, human; conditions: 10 wt % ultraviolet absorbent
Protocol: The same samples as in the Test Example 2 were used (at a 10 wt % amount of an ultraviolet absorbent).
20 Healthy male and female volunteers per one group were carried out in a 24-hour occlusion patch test, using a fin chamber on forearm curves. Assessment was done on the basis of the following assessment standards.
Mean score was determined for the assessment on the basis of the following standards.
◯: mean score of more than 0 to less than 1.
Δ: mean score of 1 or more to less than 2.
x: mean score of 2 or more.

[1] = Photostability test of aqueous solutions under daylight (Test Example 4); assay type: physicochemical; conditions: aqueous solution, daylight for 2 weeks (80 MJ)
Protocol: Aqueous solutions of the pyridazine derivative of the invention were exposed to daylight for 2 weeks (at a daylight exposure of 80 MJ). Subsequently, the remaining ratio and the change of the appearance were examined to measure the ultraviolet spectra with a spectrophotometer (solvent: water; concentration of 10 ppm and optical path length of 1 cm). The area under ultraviolet spectra curve from 290 nm to 400 nm were determined by integration to compare the area with the area before daylight exposure.
The remaining ratio and the change of the area under the ultraviolet spectrum were determined on the basis of the following standards.
⊚: 95% or more of those before daylight exposure.
◯: 90% or more to less than 95% of those before daylight exposure.
Δ: 70% or more to less than 90% of those before daylight exposure.
x: less than 70% of those before daylight exposure.

[2] = Stability test in combination with inorganic powder-based ultraviolet shielding agent, sunscreen cream (Test Example 5); assay type: physicochemical; conditions: sunscreen cream with inorganic powders; ultraviolet absorbent 10.0 wt %; 50° C. for 2 months; visual observation
Protocol: A sunscreen cream of the following formulation was prepared and stored at 50° C. for 2 months. Under visual observation of the color change, the stability of the inventive pyridazine derivative in combination with inorganic powder-based ultraviolet screening agents commonly in blend as external preparations for skin for the purpose of ultraviolet prevention was examined.
After the ingredient 2 was added to the ingredient 1 to swell the ingredient 2, the ingredients 3 to 11 were mixed with the resulting mixture under heating, for sufficient dispersion and dissolution. While keeping the dispersion at 70° C., a solution of the mixture of the ingredients 12 to 15 was gradually added to the dispersion under thorough emulsification with a homomixer. The resulting mixture was cooled to 30° C. under sufficient stirring to prepare sunscreen creams.

[3] = Stabilization effect on perfume under daylight exposure (Test Examples 92 to 181); assay type: physicochemical; parameters: key: ◯: no change; Δ: almost no change; x: change; conditions: daylight exposure (80 MJ)
Protocol: Each test sample was prepared for observation of the change of the odor of the test sample (determined by perfume coordinator) before and after daylight exposure (80 MJ).

[4] = Drug stabilization effect under daylight exposure (Test Examples 182 to 211); assay type: physicochemical; parameters: key to Appearance (visual determination): ◯: no change; Δ: almost no change; x: change; conditions: photostabilizer 0.05 wt %, daylight exposure (80 MJ); for Remaining ratio (%): liquid chromatography
Protocol: (§1) For observation of the change of the appearance of each test sample (determination based on visual observation) and the measurement of the remaining ratio by liquid chromatography before and after daylight exposure (80 MJ), the test sample was prepared.

[5] = Dye stabilization effect in blend with sequestering agents (Test Examples 212 to 275); assay type: physicochemical; conditions: daylight exposure (80 MJ)
Procedure, shortened: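 Colour difference (ΔE) measured by spectrophotometer in Lab coordinates before and after daylight exposure (80 MJ), relative to pre-exposure values (L1, a1, b1); appearance change also assessed visually.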

[6] = Drug stabilization effect blended with sequestering agent (Test Examples 372 to 391); assay type: physicochemical; parameters: key to Appearance (visual determination): ◯: no change; Δ: almost no change; x: change; conditions: drug Glycyrrhizinic acid dipotassium 0.05, photostabilizer blend amount 0.03, daylight exposure (80 MJ)
Protocol: Then, the photostabilization effect of the pyridazine derivative in combination with sequestering agents on each drug and the change of the appearance of each composition were examined, by using the following formulation for assessment.
as §1

[7] = drug Dipotassium glycyrrhizinate 0.05 wt %
[8] = drug dibutylhydroxytoluene 0.01 wt %
[9] = drug dl-α-tocopherol 2-L-ascorbic acid phosphate diester potassium salt 0.01 wt %

SMILES: Oc1cc(N2CCOCC2)cnn1 [3-Hydroxy-5-morpholinopyridazine, 3-hydroxy-5-morpholinopyridazine]
- Ultraviolet prevention effect (sunburn; cream, blend amount 0.0005 wt %): Δ (prominently effective or effective for 30% or more to less than 50% of the subjects)
- Ultraviolet prevention effect (sunburn; cream, blend amount 0.001 wt %): ◯ (prominently effective or effective for 50% or more to less than 80% of the subjects)
- Ultraviolet prevention effect (sunburn; cream, blend amount 0.01 wt %): ⊚ (prominently effective or effective for 80% or more of the subjects)
- Ultraviolet prevention effect (sunburn; cream, blend amount 1 wt %): ⊚ (prominently effective or effective for 80% or more of the subjects)
- Ultraviolet prevention effect (sunburn; cream, blend amount 5 wt %): ⊚ (prominently effective or effective for 80% or more of the subjects)
- Ultraviolet prevention effect (sunburn; cream, blend amount 10 wt %): ⊚ (prominently effective or effective for 80% or more of the subjects)
- Ultraviolet prevention effect (sunburn; cream, blend amount 20 wt %): ⊚ (prominently effective or effective for 80% or more of the subjects)
- Ultraviolet prevention effect (sunburn; lotion, blend amount 0.0005 wt %): Δ (prominently effective or effective for 30% or more to less than 50% of the subjects)
- Ultraviolet prevention effect (sunburn; lotion, blend amount 0.001 wt %): ◯ (prominently effective or effective for 50% or more to less than 80% of the subjects)
- Ultraviolet prevention effect (sunburn; lotion, blend amount 0.01 wt %): ⊚ (prominently effective or effective for 80% or more of the subjects)
- Ultraviolet prevention effect (sunburn; lotion, blend amount 1 wt %): ⊚ (prominently effective or effective for 80% or more of the subjects)
- Ultraviolet prevention effect (sunburn; lotion, blend amount 5 wt %): ⊚ (prominently effective or effective for 80% or more of the subjects)
- Ultraviolet prevention effect (sunburn; lotion, blend amount 10 wt %): ⊚ (prominently effective or effective for 80% or more of the subjects)
- Ultraviolet prevention effect (sunburn; lotion, blend amount 20 wt %): ⊚ (prominently effective or effective for 80% or more of the subjects)
- Determination (skin reaction, patch test) (skin; cream): ⊚ (mean score of 0)
- Determination (skin reaction, patch test) (skin; lotion): ⊚ (mean score of 0)
- Remaining ratio [1]: ⊚ (95% or more of those before daylight exposure)
- Change of area under ultraviolet spectrum ([1]; 290 nm to 400 nm): ⊚ (95% or more of those before daylight exposure)
- Color change [2]: no
- odor determination ([3]; base perfume Muge, photostabilizer 0.05 wt %): ◯
- odor determination ([3]; base perfume Spicy, photostabilizer 0.2 wt %): ◯
- odor determination ([3]; natural perfume Jasmine oil, photostabilizer 0.05 wt %): ◯
- odor determination ([3]; natural perfume Lavender oil, photostabilizer 0.1 wt %): ◯
- odor determination ([3]; natural perfume Ylang ylang oil, photostabilizer 0.2 wt %): ◯
- odor determination ([3]; synthetic perfume Citral, photostabilizer 0.1 wt %): ◯
- odor determination ([3]; synthetic perfume Linalool, photostabilizer 0.05 wt %): ◯
- odor determination ([3]; synthetic perfume Linalyl acetate, photostabilizer 0.1 wt %): ◯
- odor determination ([3]; synthetic perfume Rose oxide, photostabilizer 0.2 wt %): ◯
- Appearance (visual determination) [4, 7]: ◯
- Remaining ratio (%) [4, 7]: 98.9%
- Appearance (visual determination) [4, 8]: ◯
- Remaining ratio (%) [4, 8]: 98.8%
- Appearance (visual determination) [4, 9]: ◯
- Remaining ratio (%) [4, 9]: 98.0%
- Δ E ([5]; dye Yellow 5 (Sunset Yellow FCF) 0.0001, photostabilizer 0.01, no sequestering agent): 0.61
- Δ E ([5]; dye Yellow 5 (Sunset Yellow FCF) 0.0001, photostabilizer 0.01, with ethylenediaminetetraacetate trisodium 0.03): 0.52
- Δ E ([5]; dye Yellow 5 (Sunset Yellow FCF) 0.0001, photostabilizer 0.01, with sodium metaphosphate 0.03): 0.55
- Δ E ([5]; dye Yellow 5 (Sunset Yellow FCF) 0.0001, photostabilizer 0.01, with sodium polyphosphate 0.03): 0.46
- Δ E ([5]; dyes Red 227 (Acid Fuchsine D) 0.0001 + Yellow 203 (Quinoline Yellow WS) 0.0001, no sequestering agent, photostabilizer blend amount 0.01): 1.68
- Δ E ([5]; dyes Red 227 (Acid Fuchsine D) 0.0001 + Yellow 203 (Quinoline Yellow WS) 0.0001, with sodium metaphosphate 0.02, photostabilizer blend amount 0.01): 0.98
- Appearance (visual determination) ([6]; no sequestering agent): ◯
- Appearance (visual determination) ([6]; with sodium metaphosphate 0.03): ◯

— patent publication US6676932B2, “Ultraviolet absorbent, photostabilizer, ultraviolet ray-absorbing composition, photostabilized composition and external preparation for skin” (Shiseido Co., Ltd., priority 2001, dated 2004)
